Experimental data from patent publication US10441616B2, “Pharmaceutical composition for treating or preventing sensorineural hearing loss, containing cysteinyl leukotriene receptor antagonist and ginkgo leaf extract” (AJOU UNIVERSITY INDUSTRY-ACADEMIC COOPERATION FOUNDATION, priority 2014, dated 2019).

How the values were obtained:
Type in all cases: in vivo, mouse
hair cells = experiment: Surface preparation / Texas-Red phalloidin staining of hair cells of the Corti's organ after noise exposure; details: 1 week after noise exposure, 32 kHz site; montelukast post-treatment group compared with noise exposure group
Method: The cut cochlea was perfused with 4% PFA in 0.1 M PB and maintained overnight at 4° C. The cochlea was washed with PBS three times for 10 minutes and then decalcified with a 5% EDTA solution for 3 days. After decalcification, an otic capsule was removed and a lateral wall, a Reissner's membrane, and a tectorial membrane were removed under an optical microscope. The Corti's organ (OC) was dyed with Texas Red VR-X phalloidin (T7471; 200 U/mL methanol diluted 1:100 in PBS; Invitrogen, Eugene, Oreg.) for 1 hour. Thereafter, the entire samples were rinsed with PBS and cut and placed on a glass slide by performing a surface treatment method (microdissected into individual turns) and using a mounting solution containing 4′6-diamidino-2-phenilindol (H-1200; 1.5 μg/ml; DAPI; Vector Laboratories). The slide was incubated for at least 15 minutes. The hair cells of the OC were observed by a confocal microscope (LSM510, Carl Zeiss, Jena, Germany).

stereocilia of OHC = experiment: Scanning electron microscopy (SEM) of cochlear hair cells after noise exposure; details: basal turn areas corresponding to 32 kHz, montelukast post-treatment compared with only-noise exposed group
From the text: The SEM was used for evaluating the form of the hair cells of the cochlea. The mouse was euthanized after intraperitoneal injection of urethane, and temporal bones were dissected at both sides from the skull in order to obtain the cochlea to be carefully cut. The fenestra rotunda of the obtained cochlea was perforated by using a sharp needle. An outer lymph space was perfused with 2% glutaraldehyde in PBS by positioning a Pasteur pipette having a modified butterfly catheter for the fenestra rotunda. Each sample was left in a glutaraldehyde solution overnight. The samples were perfused with 1% osmium tetroxide and positioned at a tissue rotator for 15 minutes. The samples were rinsed with PBS three times. Under an optical microscope, the bone part of the cochlea was carefully removed and a lateral wall was cut and removed to expose the Corti's organ. The tissue was continuously dehydrated with 50, 70, 90, 95, and 100% acetones. Each specimen was treated with hexamethyldisilazane (HMDS) and dried in air, and positioned in a stove for coating of platinum. The tissue was photographed by JSM-6380 (Jeol, Tokyo, Japan). The damage to the hair cells was analyzed in basal turn areas corresponding to 32 kHz.

CysLT1 receptor gene = experiment: PCR of Cysltr1 gene expression in the cochlea after noise exposure; details: 3 day after noise exposure, montelukast post-treatment vs noise exposure group
Method: At 1 day, 3 day, and 7 day, the animal was euthanized with urethane intraperitoneal injection (1 g/kg) and the bilateral temporal bone was immediately removed. Two isolated cochleae were dissolved in a TRIzol solution, the lipid was removed by adding chloroform, and then RNA gene was extracted with isopropanol alcohol. The extracted RNA gene was quantified, mixed with two types of forward and reverse primers and polymerase, and amplified at an average of 35 cycles for each primer through a PCR machine, and then changes in expression level for each gene were compared and analyzed by measuring the fluorescent degree.

[1] = system: matrix metalloproteinase-3 (Mmp3); experiment: Gene and protein expression of Mmp3 in inner ear tissue after noise exposure (FIG. 10)

CC(C)(O)c1ccccc1CCC(SCC1(CC(=O)[O-])CC1)c1cccc(/C=C/c2ccc3ccc(Cl)cc3n2)c1.[Na+] (centres unmarked) [montelukast] was tested, and the “hair cell marker (phalloidin)” value (hair cells) was “significantly increased”, the “damage to the stereocilia of OHC” value (stereocilia of OHC) was “significantly reduced” and the “CysLT1 receptor gene (Cysltr1) expression” value (CysLT1 receptor gene) was “significantly decreased”. For the same molecule, the “Mmp3 gene expression level” value ([1]; montelukast post-treatment after noise exposure (FIG. 10A)) was “reduction” and the “Mmp3 protein expression level” value ([1]; western blot, montelukast post-treatment after noise exposure (FIG. 10B)) was “reduction”.
